For 12 molecules, TGI results are on record in PubChem BioAssay (NCI).

Test systems include HOP-92 NSCLC; MALME-3M melanoma; UO-31 renal; NCI-H522 lung; NCI/ADR-RES ovarian; SF-295 CNS; UACC-257 melanoma; EKVX NSCLC; RXF 393 renal; A549 NSCLC.
What all share (assay): growth of human tumour cells (NCI), 48 h

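These data come from cells grown in 96-well plates and exposed to compound for 48 hours at five concentrations. TGI: total growth inhibition.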

Take `O=C(/C=C/c1ccc(Oc2cc(C(=O)/C=C/c3ccc(O)cc3)c(O)cc2O)cc1)c1ccc(O)cc1O`: the TGI was 55.3 µM with HOP-92 NSCLC; 26.6 µM with MALME-3M melanoma; more than 100 µM in the test on UO-31 renal; 19.1 µM in the test with NCI-H522 lung; 22.7 µM in the test with NCI/ADR-RES ovarian; 18.5 µM in the test with SF-295 CNS. Moreover, the TGI was found to be 28.4 µM in the test on UACC-257 melanoma, 27.9 µM in the test with EKVX NSCLC, 24.8 µM in the test with RXF 393 renal and 99.5 µM with A549 NSCLC.

On to `CON(C)c1nc(N(C)OC)nc(N(C)OC)n1`, for which the TGI with MALME-3M melanoma, in the test with UO-31 renal, with NCI-H522 lung, in the test with NCI/ADR-RES ovarian, with SF-295 CNS and in the test on EKVX NSCLC was more than 10 µM in each case. Also, the TGI in the test with RXF 393 renal and in the test on A549 NSCLC was more than 10 µM throughout.

For the molecule `O=c1c2cc(S(=O)(=O)O)ccc2nc(COc2ccc(Oc3ccc(Cl)cc3Cl)cc2)n1-c1ccc(Oc2ccc(Cl)cc2)cc1Cl`, the TGI was found to be 31.4 µM in the test on HOP-92 NSCLC; 85.2 µM with MALME-3M melanoma; 27 µM with UO-31 renal; 47.8 µM in the test on NCI-H522 lung; 39.5 µM in the test on NCI/ADR-RES ovarian; 35.5 µM with SF-295 CNS. For the same molecule, the TGI with UACC-257 melanoma came out at 57.4 µM; in the test on EKVX NSCLC it was 44.5 µM; in the test on RXF 393 renal it was 17.9 µM; in the test on A549 NSCLC, 40.6 µM.

Turning to `Cn1c(-c2ccccc2)cc(-c2cccs2)c1-c1cccs1`, the TGI in the test on HOP-92 NSCLC, in the test with MALME-3M melanoma, with UO-31 renal, in the test with NCI-H522 lung, in the test with NCI/ADR-RES ovarian and in the test with SF-295 CNS was more than 100 µM in each case. For the same molecule, the TGI was more than 51 µM in the test on UACC-257 melanoma, more than 100 µM with EKVX NSCLC, more than 100 µM with RXF 393 renal and more than 100 µM in the test with A549 NSCLC.

For the molecule `Cc1cc(C)nc(NS(=O)(=O)c2ccc(NC(=O)c3cccc4c(Nc5ccc(S(=O)(=O)Nc6cc(C)on6)cc5)c5ccccc5nc34)cc2)n1`, the TGI in the test with MALME-3M melanoma was 44.7 µM; in the test on UO-31 renal, more than 100 µM; in the test with NCI-H522 lung it was 32.5 µM; with UACC-257 melanoma, 47.2 µM; in the test with EKVX NSCLC, 75.6 µM; in the test with RXF 393 renal it was 39.6 µM.

Turning to `CC(C)C(C(=O)O)N1C(=O)c2ccccc2C1=O` (configuration not stated), the TGI in the test with HOP-92 NSCLC, in the test on MALME-3M melanoma, with NCI-H522 lung, in the test on NCI/ADR-RES ovarian, in the test with SF-295 CNS and with UACC-257 melanoma was more than 100 µM each time. Further, the TGI in the test with EKVX NSCLC, with RXF 393 renal and in the test with A549 NSCLC was more than 100 µM each time.

Consider `COC(=O)c1c(C)n([O-])c2cc(Cl)c(Cl)cc2[n+]1=O`, for which the TGI was 31.1 µM in the test with MALME-3M melanoma; 46.7 µM with UO-31 renal; 25.4 µM in the test on NCI-H522 lung; 49.5 µM with NCI/ADR-RES ovarian; more than 100 µM in the test with SF-295 CNS; 54.9 µM in the test on UACC-257 melanoma. The TGI was 67.7 µM with EKVX NSCLC, more than 100 µM with RXF 393 renal and 28.6 µM with A549 NSCLC.

For the molecule `CC12C=CC(=O)C=C1CCC1C3CCC(O)(C(=O)CO)C3(C)CC(O)C12F` (configuration not stated), the TGI in the test on HOP-92 NSCLC, with MALME-3M melanoma, in the test with UO-31 renal, with NCI-H522 lung, with NCI/ADR-RES ovarian and with SF-295 CNS was more than 100 µM each time. Besides, the TGI with UACC-257 melanoma, in the test with EKVX NSCLC, with RXF 393 renal and in the test on A549 NSCLC was more than 100 µM throughout.

As to `C[N+](C)(C)c1ncnc2c1ncn2C1CC(O)C(CO)O1` (configuration not stated), the TGI in the test with HOP-92 NSCLC, with MALME-3M melanoma, in the test on UO-31 renal, in the test on NCI-H522 lung, in the test on NCI/ADR-RES ovarian and in the test with SF-295 CNS was more than 100 µM each time. In addition, the TGI in the test on UACC-257 melanoma, in the test on EKVX NSCLC, in the test with RXF 393 renal and in the test with A549 NSCLC was more than 100 µM in each case.

As for `CCCC1CCC(=C2C(=O)CCC2=O)O1` (configuration not stated), the TGI with HOP-92 NSCLC, in the test on UO-31 renal, with NCI-H522 lung, in the test on NCI/ADR-RES ovarian, with SF-295 CNS and in the test on UACC-257 melanoma was more than 100 µM in each case. Also, the TGI in the test on EKVX NSCLC, in the test on RXF 393 renal and with A549 NSCLC was more than 100 µM in each case.

Take `COC(=O)C1=C(OC(=O)/C(=C/c2ccc(Cl)cc2)c2ccc(Cl)cc2)C(C(=O)OC)[C@]2(O)[C@@H](C(=O)OC)[C@H]1C[C@@H](c1ccccc1)[C@@H]2C(=O)OC` (some centres not stated): the TGI with NCI-H522 lung, in the test on NCI/ADR-RES ovarian, in the test with SF-295 CNS, in the test with UACC-257 melanoma, in the test on EKVX NSCLC and in the test on RXF 393 renal was more than 100 µM throughout. The TGI in the test on A549 NSCLC is more than 100 µM.

Take `CC(N)Cc1ccc(Cl)c(Cl)c1` (configuration not stated): the TGI was 57.4 µM in the test on HOP-92 NSCLC; 35.5 µM with MALME-3M melanoma; 66.3 µM in the test with UO-31 renal; more than 66.9 µM with NCI-H522 lung; more than 80.1 µM with SF-295 CNS; 54.9 µM in the test on UACC-257 melanoma. Further, the TGI was more than 100 µM in the test on EKVX NSCLC, 77.2 µM in the test on RXF 393 renal and more than 100 µM in the test with A549 NSCLC.
